Assay results reported in ChEMBL document CHEMBL5096164, “In Vivo Profiling of a Natural Alkaloid, Anatabine, in Rodents: Pharmacokinetics and Anti-Inflammatory Efficacy” (J Nat Prod, 2021).
Calls of active or inactive are those of the source. The calls are words filed in the database; no cut-off is given here.

Columns and labels:
[1] = AUC in rat at 0.40 mg/kg via inhalation; format: ADME, organism-based; design: dose 0.4 mg/kg, route inh; conditions: in vivo, inhaled or intranasal, 0.4 mg/kg
[2] = Tmax in Wistar rat plasma at 5 mg/kg, ip administered as bolus dose measured after 5 to 360 mins by LC-MS/MS analysis; format: ADME, organism-based; conditions: time 5-360 min
[3] = Clearance in Wistar rat plasma at 5 mg/kg, ip administered as bolus dose measured after 5 to 360 mins by LC-MS/MS analysis; format: ADME, organism-based; conditions: time 5-360 min
Mus musculus [4] = test: Antiinflammatory activity in LPS induced mouse model assessed as reduction in tumor necrosis factor alpha level in plasma at 5 mg/kg, ip preincubated for 1 hr followed by LPS stimulation and measured after 2 hrs by ELISA method relative to control; format: functional; design: scale not given: the % may be the effect or the level left
[5] = Drug uptake in MOG (35 to 55 residues)-induced experimental autoimmune encephalomyelitis mouse aerosol at 25 microg/L by LC-MS/MS analysis; format: ADME; conditions: in vivo, inhaled_or_intranasal, dose 25 µg/L
[6] = Half life in Wistar rat plasma at 1 mg/kg, iv administered as bolus dose measured after 5 to 360 mins by LC-MS/MS analysis; format: ADME, organism-based; conditions: time 5-360 min
Mus musculus [7] = test: Antiinflammatory activity ip /LPS induced mouse model assessed as upregulation of IL-10 level preincubated for 1 hr followed by LPS stimulation and measured after 2 hrs by luminex xMAP bead based assay; format: functional, organism-based; conditions: dose 1-5 mg/kg, time 3.0 hrs, DDE = dose-dependent effect
[8] = Half life in Wistar rat plasma at 2 mg/kg, iv administered as bolus dose measured after 5 to 360 mins by LC-MS/MS analysis; format: ADME, organism-based; conditions: time 5-360 min
[9] = Half life in rat at 2.73 mg/kg via inhalation; format: ADME, organism-based; conditions: in vivo, inhaled or intranasal, route inh
Rattus norvegicus = test: Antiinflammatory activity in carrageenan-induced paw edema rat model assessed as recovery of adverse effect at hypothermia at 5 mg/kg, ip or 20 mg/kg administered daily via whole body inhalation; format: functional, organism-based
[10] = Drug uptake in MOG (35 to 55 residues)-induced experimental autoimmune encephalomyelitis unimmunized mouse plasma at 25 microg/L by LC-MS/MS analysis; format: ADME; conditions: dose 25 µg/L
Mus musculus [11] = test: Antiinflammatory activity in ip induced Wistar mouse model of carrageenan-induced paw edema assessed as reduction in paw thickness administered 10 mins prior to carrageenan induction and measured upto 5 hrs; format: functional, organism-based; conditions: dose 1-5 mg/kg, time 310.0 min, DDE = dose-dependent effect
[12] = Ratio of Cmax in C57BL/6 mouse brain to plasma at 2 mg/kg, ip measured after 3 to 240 mins by LC-MS/MS analysis; format: ADME, organism-based; conditions: brain and plasma, time 3-240 min, read-out: BPR
[13] = Drug concentration in carrageenan-induced paw edema in rat respiratory tract at 230.7 microg/L via inhalation measured for 30 mins; format: ADME; conditions: inhaled or intranasal, route inh, dose 230.7 µg/L, read-out: Drug uptake
[14] = Antiinflammatory activity in MOG (35 to 55 residues)-induced experimental autoimmune encephalomyelitis mouse aerosol assessed as reduction in clinical score at 25 microg/L measured on 16 day (reference value: 2.0); format: ADME; conditions: inhaled_or_intranasal, 384 h, dose 25 µg/L
[15] = AUC in rat at 0.06 mg/kg via inhalation; format: ADME, organism-based; design: dose 0.06 mg/kg, route inh; conditions: in vivo, inhaled or intranasal
[16] = AUC in C57BL/6 plasma at 2 mg/kg, ip measured after 3 to 240 mins by LC-MS/MS analysis; format: ADME, organism-based; design: time 3-240 min, dose 2 mg/kg, route ip; conditions: C57BL/6, mouse
Mus musculus [17] = test: Antiinflammatory activity ip/LPS induced mouse model assessed as reduction in IL-6 level in plasma preincubated for 1 hr followed by LPS stimulation and measured after 2 hrs by ELISA method; format: functional, organism-based; conditions: dose 1-5 mg/kg, time 3.0 hrs, DDE = dose-dependent effect
[18] = Cmax in C57BL/6 brain at 2 mg/kg, ip measured after 3 to 240 mins by LC-MS/MS analysis; format: ADME, organism-based; design: time upper 240 min, time lower 3 min, dose 2 mg/kg, route ip; conditions: C57BL/6, mouse
[19] = Cmax in Wistar rat plasma at 5 mg/kg, ip administered as bolus dose measured after 5 to 360 mins by LC-MS/MS analysis; format: ADME, organism-based; design: dose 5 mg/kg, time upper 360 min, time lower 5 min, route ip
Mus musculus [20] = species on record: Mus musculus; test: Antiinflammatory activity in MOG (35 to 55 residues)-induced experimental autoimmune encephalomyelitis mouse aerosol assessed as attenuation of body weight loss at 50 microg/L; format: functional, organism-based; conditions: dose 50.0 µg/L
[21] = Drug concentration in carrageenan-induced paw edema in rat respiratory tract at 254.3 microg/L via inhalation measured for 60 mins; format: ADME; conditions: inhaled or intranasal, route inh, dose 254.3 µg/L, read-out: Drug uptake
[22] = Half life in C57BL/6 mouse plasma at 2 mg/kg, ip measured after 3 to 240 mins by LC-MS/MS analysis; format: ADME, organism-based; conditions: time 3-240 min
Mus musculus [23] = test: Antiinflammatory activity LPS induced mouse model assessed as reduction in IL-6 level in plasma at 5 mg/kg, ip preincubated for 1 hr followed by LPS stimulation and measured after 2 hrs by ELISA method relative to control; format: functional; design: scale not given: the % may be the effect or the level left
[24] = Cmax in Wistar rat plasma at 2 mg/kg, iv administered as bolus dose measured after 5 to 360 mins by LC-MS/MS analysis; format: ADME, organism-based; design: dose 2 mg/kg, time upper 360 min, time lower 5 min, route iv
[25] = Half life in Wistar rat plasma at 5 mg/kg, ip administered as bolus dose measured after 5 to 360 mins by LC-MS/MS analysis; format: ADME, organism-based; conditions: time 5-360 min
[26] = Drug uptake in rat aerosol at 2.5 microg/L via inhalation measured for 30 mins; format: ADME; conditions: in vivo, inhaled_or_intranasal, 0.5 h, route inh, dose 2.5 µg/L
[27] = Bioavailability in rat at 0.40 mg/kg via inhalation; format: ADME, organism-based; conditions: in vivo, inhaled or intranasal, route inh, dose 0.4 mg/kg
[28] = Bioavailability in Wistar rat plasma at 5 mg/kg, ip administered as bolus dose measured after 5 to 360 mins by LC-MS/MS analysis; format: ADME, organism-based; conditions: time 5-360 min
[29] = Half life in C57BL/6 mouse brain at 2 mg/kg, ip measured after 3 to 240 mins by LC-MS/MS analysis; format: ADME, organism-based; conditions: time 3-240 min
[30] = AUC in C57BL/6 brain at 2 mg/kg, ip measured after 3 to 240 mins by LC-MS/MS analysis; format: ADME, organism-based; design: time 3-240 min, dose 2 mg/kg, route ip; conditions: C57BL/6, mouse
[31] = Drug uptake in rat aerosol at 261.4 microg/L via inhalation measured for 30 mins; format: ADME; conditions: in vivo, inhaled_or_intranasal, 0.5 h, dose 261.4 µg/L
[32] = Volume of distribution at steady state in Wistar rat plasma at 1 mg/kg, iv administered as bolus dose measured after 5 to 360 mins by LC-MS/MS analysis; format: ADME, organism-based; conditions: time 5-360 min, read-out: Vdss
Mus musculus [33] = test: Antiinflammatory activity LPS induced mouse model assessed as reduction in IL-9 at 1 to 5 mg/kg, ip preincubated for 1 hr followed by LPS stimulation and measured after 2 hrs by luminex xMAP bead based assay; format: functional, organism-based; conditions: dose 1-5 mg/kg, time 3.0 hrs
[34] = Bioavailability in rat at 2.73 mg/kg via inhalation; format: ADME, organism-based; conditions: in vivo, inhaled or intranasal, route inh

In the case of `C1=CCC(c2cccnc2)NC1` (stereo not given), the AUC [1] is reported as 637 ng·h/mL, the Tmax [2] is reported as 9.6 min and the CL/F [3] is reported as 8.11 mL/min/kg. The Activity (Mus musculus [4]) was 34%, the Drug uptake [5] was 24.8 ng/mL and the half-life [6] was 68.4 min. The Activity (Mus musculus [7]) was “Dde”, the half-life [8] was 83.4 min and the half-life [9] was 218 min. The Activity (Rattus norvegicus) was “Active”, the Cp [10] was 531.5 ng/mL and the Activity (Mus musculus [11]) was “Dde”. It also gave a Kp [12] of 2.5, a concentration at 0.5 h [13] of 2.42 ng/mL and an Activity [14] of 1.1. The AUC [15] was 91.2 ng·h/mL, the AUC [16] was 430 ng·h/mL and the Activity (Mus musculus [17]) was “Dde”. For the same compound, the Cmax [18] was 3380 ng/mL, the Cmax [19] was 2730 ng/mL and the Activity (Mus musculus [20]) was “Active”. For the same compound, the concentration at 1 h [21] was 5.34 ng/mL, the half-life [22] was 12.6 min and the Activity (Mus musculus [23]) was 47.2%. The Cmax [24] was 1180 ng/mL, the half-life [25] was 83.4 min and the Drug uptake [26] was 2.5 µg/L. It also gave a bioavailability [27] of 80.1%, a bioavailability [28] of 68.6% and a half-life [29] of 21.6 min. For the same compound, the AUC [30] was 1490 ng·h/mL, the Drug uptake [31] was 250 µg/L and the Vd [32] was 1.23 L/kg. The Activity (Mus musculus [33]) was “Active” and the bioavailability [34] was 56.4%.
